Test results taken from the CheMixHub ionic liquid set.

Assay: xn = mol fraction of the nth substance listed
Conditions: 100 kPa

CCCCCCCC[n+]1ccccc1.[Br-] + CC(C)[C@H](N)C(=O)O + O
Conditions	electrical conductivity [S/m]
298.15 K, x2 = 0.001786, x1 = 0.006862	1.62
298.15 K, x2 = 0.001787, x1 = 0.006534	1.58
298.15 K, x2 = 0.001788, x1 = 0.005828	1.49
298.15 K, x2 = 0.001788, x1 = 0.006196	1.54
298.15 K, x2 = 0.001789, x1 = 0.005439	1.44
298.15 K, x2 = 0.00179, x1 = 0.005003	1.38
298.15 K, x2 = 0.001791, x1 = 0.004533	1.31
298.15 K, x2 = 0.001792, x1 = 0.004009	1.21
298.15 K, x2 = 0.001793, x1 = 0.003435	1.08
298.15 K, x2 = 0.001794, x1 = 0.002807	0.937
298.15 K, x2 = 0.001795, x1 = 0.002148	0.761
298.15 K, x2 = 0.001796, x1 = 0.001254	0.492
298.15 K, x2 = 0.001796, x1 = 0.001671	0.623
298.15 K, x2 = 0.001797, x1 = 0.0007892	0.342
303.15 K, x2 = 0.0008935, x1 = 0.007383	1.93
303.15 K, x2 = 0.0008938, x1 = 0.007052	1.88
303.15 K, x2 = 0.0008942, x1 = 0.006672	1.82
303.15 K, x2 = 0.0008946, x1 = 0.006264	1.77
303.15 K, x2 = 0.000895, x1 = 0.005822	1.7
303.15 K, x2 = 0.0008954, x1 = 0.005343	1.63
303.15 K, x2 = 0.0008959, x1 = 0.004817	1.54
303.15 K, x2 = 0.0008964, x1 = 0.004238	1.43
303.15 K, x2 = 0.0008969, x1 = 0.003609	1.28
303.15 K, x2 = 0.0008976, x1 = 0.002902	1.1
303.15 K, x2 = 0.0008982, x1 = 0.00217	0.864
303.15 K, x2 = 0.0008986, x1 = 0.001725	0.717
303.15 K, x2 = 0.0008991, x1 = 0.001232	0.553
303.15 K, x2 = 0.0008995, x1 = 0.000751	0.372
303.15 K, x2 = 0.001786, x1 = 0.006852	1.81
303.15 K, x2 = 0.001787, x1 = 0.006525	1.77
303.15 K, x2 = 0.001788, x1 = 0.00582	1.67
303.15 K, x2 = 0.001788, x1 = 0.006185	1.72
303.15 K, x2 = 0.001789, x1 = 0.005432	1.61
303.15 K, x2 = 0.00179, x1 = 0.004996	1.54
303.15 K, x2 = 0.001791, x1 = 0.004527	1.46
303.15 K, x2 = 0.001792, x1 = 0.004004	1.35
303.15 K, x2 = 0.001793, x1 = 0.003429	1.21
303.15 K, x2 = 0.001794, x1 = 0.002804	1.04
303.15 K, x2 = 0.001795, x1 = 0.002146	0.845
303.15 K, x2 = 0.001796, x1 = 0.00167	0.691
303.15 K, x2 = 0.001797, x1 = 0.0007874	0.379
303.15 K, x2 = 0.001797, x1 = 0.001252	0.546
308.15 K, x2 = 0.0008936, x1 = 0.00737	2.19
308.15 K, x2 = 0.0008938, x1 = 0.00704	2.13
308.15 K, x2 = 0.0008942, x1 = 0.006659	2.06
308.15 K, x2 = 0.0008946, x1 = 0.006254	1.99
308.15 K, x2 = 0.000895, x1 = 0.005812	1.92
308.15 K, x2 = 0.0008954, x1 = 0.005334	1.81
308.15 K, x2 = 0.0008959, x1 = 0.004808	1.71
308.15 K, x2 = 0.0008964, x1 = 0.00423	1.57
308.15 K, x2 = 0.0008969, x1 = 0.003602	1.42
308.15 K, x2 = 0.0008976, x1 = 0.002896	1.19
308.15 K, x2 = 0.0008982, x1 = 0.002167	0.943
308.15 K, x2 = 0.0008986, x1 = 0.001721	0.784
308.15 K, x2 = 0.0008991, x1 = 0.00123	0.608
308.15 K, x2 = 0.0008995, x1 = 0.0007492	0.414
308.15 K, x2 = 0.001786, x1 = 0.006839	2.07
308.15 K, x2 = 0.001787, x1 = 0.006512	2.02
308.15 K, x2 = 0.001788, x1 = 0.00581	1.87
308.15 K, x2 = 0.001788, x1 = 0.006175	1.95
308.15 K, x2 = 0.001789, x1 = 0.005421	1.79
308.15 K, x2 = 0.00179, x1 = 0.004987	1.71
308.15 K, x2 = 0.001791, x1 = 0.004518	1.62
308.15 K, x2 = 0.001792, x1 = 0.003997	1.48
308.15 K, x2 = 0.001793, x1 = 0.003424	1.34
308.15 K, x2 = 0.001794, x1 = 0.002798	1.14
308.15 K, x2 = 0.001795, x1 = 0.002143	0.914
308.15 K, x2 = 0.001796, x1 = 0.001666	0.743
308.15 K, x2 = 0.001797, x1 = 0.0007874	0.427
308.15 K, x2 = 0.001797, x1 = 0.001249	0.603
